Measurements taken from patent publication US9777309B2, “High throughput assay for monitoring AMP production and aminoacyl-tRNA synthetase activity” (Board of Supervisors of Louisiana State University and …, priority 2014, dated 2017).

How the values were obtained:
[1] = molecular target: G. stearothermophilus tyrosyl-tRNA synthetase (Geobacillus stearothermophilus, UniProt P00952); test: Tyrosyl-tRNA synthetase assay with tRNA recycling (AMP release coupled to NADH); settings: for kcat: aminoacylation of tRNA^Tyr by the named tyrosine isomer, 10 mM MgATP
Experimental: The pH of all stock solutions was adjusted to 7.0 prior to use. All kinetic assays were performed in 96 well microtiter plates at 25° C. using either 100 or 200 μl of assay mix per well. Under these conditions, the path lengths are 0.28 and 0.56 cm, respectively. The reaction rate for formation of the L-Tyr-tRNA^TYr product was determined by monitoring the increase in absorbance at 340 nm associated with the conversion of NAD^+ to NADH using a BioTek Synergy 4 plate reader (ε340=6220 M^−1 cm^−1).
Initial rates for each substrate concentration were determined from a linear fit of the data (A340 vs. time). Km and Vmax values were determined by fitting a plot of the initial rate vs. substrate concentration to the Michaelis-Menten equation, the same equations (1) and (2) above:
[formula] where vo is the initial rate of the reaction and [S] is the substrate concentration. kcat values were calculated from the equation: Vmax=kcat[E]

IMP dehydrogenase = IMP dehydrogenase (Saccharomyces cerevisiae, UniProt P50095); type: biochemical
Chain of IMP dehydrogenase (P50095 whole entry): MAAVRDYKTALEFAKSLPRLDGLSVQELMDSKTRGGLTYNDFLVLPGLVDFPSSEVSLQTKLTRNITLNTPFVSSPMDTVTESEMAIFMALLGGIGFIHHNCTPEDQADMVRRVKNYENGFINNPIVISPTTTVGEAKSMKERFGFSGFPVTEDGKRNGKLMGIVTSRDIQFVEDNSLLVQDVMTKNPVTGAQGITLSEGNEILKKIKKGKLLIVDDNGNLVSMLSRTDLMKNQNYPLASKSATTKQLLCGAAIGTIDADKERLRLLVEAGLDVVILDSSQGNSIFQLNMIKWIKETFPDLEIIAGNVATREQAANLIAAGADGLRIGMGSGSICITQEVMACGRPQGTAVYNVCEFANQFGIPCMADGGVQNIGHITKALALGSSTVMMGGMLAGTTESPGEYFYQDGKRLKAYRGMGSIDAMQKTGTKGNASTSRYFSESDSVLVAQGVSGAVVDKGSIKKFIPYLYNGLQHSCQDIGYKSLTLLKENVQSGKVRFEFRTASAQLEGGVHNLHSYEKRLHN

Chain of G. stearothermophilus tyrosyl-tRNA synthetase (P00952 whole entry): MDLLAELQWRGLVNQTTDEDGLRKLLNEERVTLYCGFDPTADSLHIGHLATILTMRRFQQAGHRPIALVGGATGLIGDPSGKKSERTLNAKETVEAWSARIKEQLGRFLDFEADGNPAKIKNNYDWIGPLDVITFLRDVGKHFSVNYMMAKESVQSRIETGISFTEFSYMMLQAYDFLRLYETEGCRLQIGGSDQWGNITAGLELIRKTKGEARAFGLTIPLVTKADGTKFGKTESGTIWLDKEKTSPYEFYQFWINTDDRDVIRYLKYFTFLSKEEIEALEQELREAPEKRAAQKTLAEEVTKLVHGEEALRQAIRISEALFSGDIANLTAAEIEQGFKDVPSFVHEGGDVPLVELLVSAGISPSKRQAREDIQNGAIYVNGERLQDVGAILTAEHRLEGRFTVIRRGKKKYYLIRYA

| Compound | kcat [1] | Km^D-Tyr lower than Kd^D-Tyr determined by single turnover kinetics ([1]; single turnover assay was in the absence of tRNA^Tyr) [fold] | Km (IMP dehydrogenase; 50 mM TRIS pH 7.2, 25° C., other substrate at 5 mM, standard error in parenthesis) [µM] | affinity higher than for the C. albicans IMP dehydrogenase homolog (IMP dehydrogenase; S. cerevisiae vs Candida albicans enzyme) [fold] |
| --- | --- | --- | --- | --- |
| N[C@H](Cc1ccc(O)cc1)C(=O)O [D-Tyrosine, D-tyrosine] | 0.32 (±0.08) s^−1 | 8 | – | – |
| N[C@@H](Cc1ccc(O)cc1)C(=O)O [L-Tyrosine, L-tyrosine] | 2.8 (±0.6) s^−1 | – | – | – |
| NC(=O)c1ccc[n+]([C@@H]2O[C@H](COP(=O)([O-])OP(=O)(O)OC[C@H]3O[C@@H](n4cnc5c(N)ncnc54)[C@H](O)[C@@H]3O)[C@@H](O)[C@H]2O)c1 [NAD^+] | – | – | 800 | 4 |
